Test results taken from patent US20010034367A1, “Compositions and methods for the treatment of cystic fibrosis” (priority 1998, published 2001).
“Also recorded” adds a separate entry of the source. Like-named read-outs stand apart in the source and are kept apart here.

Legend:
[1] = tested on: ΔF508-homozygous pancreatic acinar cell line; conditions: cited from earlier work
ΔF508-CFTR [2] = conditions: up to 300 mM; cited from earlier work
IB3-1 cells = conditions: respiratory epithelial cells; 1-2 mM; cited from earlier work
ΔF508-CFTR [3] = target: T1, ΔF508-CFTR (Homo sapiens, UniProt P13569, DEL508-508); conditions: 0.1 and 2 mM; primary nasal polyp epithelia or IB3-1 cells; up to 7 days in culture; cited from earlier work
T1 construct: primary cultures of nasal polyp epithelia from CF patients (ΔF508 homozygous or heterozygous), or the CF bronchial epithelial cell line IB3-1; endogenous in cells; host or cells: primary nasal polyp epithelia from CF patients; IB3-1 CF bronchial epithelial cell line
T1 sequence (P13569 with tags, fused parts or gaps DEL508-508): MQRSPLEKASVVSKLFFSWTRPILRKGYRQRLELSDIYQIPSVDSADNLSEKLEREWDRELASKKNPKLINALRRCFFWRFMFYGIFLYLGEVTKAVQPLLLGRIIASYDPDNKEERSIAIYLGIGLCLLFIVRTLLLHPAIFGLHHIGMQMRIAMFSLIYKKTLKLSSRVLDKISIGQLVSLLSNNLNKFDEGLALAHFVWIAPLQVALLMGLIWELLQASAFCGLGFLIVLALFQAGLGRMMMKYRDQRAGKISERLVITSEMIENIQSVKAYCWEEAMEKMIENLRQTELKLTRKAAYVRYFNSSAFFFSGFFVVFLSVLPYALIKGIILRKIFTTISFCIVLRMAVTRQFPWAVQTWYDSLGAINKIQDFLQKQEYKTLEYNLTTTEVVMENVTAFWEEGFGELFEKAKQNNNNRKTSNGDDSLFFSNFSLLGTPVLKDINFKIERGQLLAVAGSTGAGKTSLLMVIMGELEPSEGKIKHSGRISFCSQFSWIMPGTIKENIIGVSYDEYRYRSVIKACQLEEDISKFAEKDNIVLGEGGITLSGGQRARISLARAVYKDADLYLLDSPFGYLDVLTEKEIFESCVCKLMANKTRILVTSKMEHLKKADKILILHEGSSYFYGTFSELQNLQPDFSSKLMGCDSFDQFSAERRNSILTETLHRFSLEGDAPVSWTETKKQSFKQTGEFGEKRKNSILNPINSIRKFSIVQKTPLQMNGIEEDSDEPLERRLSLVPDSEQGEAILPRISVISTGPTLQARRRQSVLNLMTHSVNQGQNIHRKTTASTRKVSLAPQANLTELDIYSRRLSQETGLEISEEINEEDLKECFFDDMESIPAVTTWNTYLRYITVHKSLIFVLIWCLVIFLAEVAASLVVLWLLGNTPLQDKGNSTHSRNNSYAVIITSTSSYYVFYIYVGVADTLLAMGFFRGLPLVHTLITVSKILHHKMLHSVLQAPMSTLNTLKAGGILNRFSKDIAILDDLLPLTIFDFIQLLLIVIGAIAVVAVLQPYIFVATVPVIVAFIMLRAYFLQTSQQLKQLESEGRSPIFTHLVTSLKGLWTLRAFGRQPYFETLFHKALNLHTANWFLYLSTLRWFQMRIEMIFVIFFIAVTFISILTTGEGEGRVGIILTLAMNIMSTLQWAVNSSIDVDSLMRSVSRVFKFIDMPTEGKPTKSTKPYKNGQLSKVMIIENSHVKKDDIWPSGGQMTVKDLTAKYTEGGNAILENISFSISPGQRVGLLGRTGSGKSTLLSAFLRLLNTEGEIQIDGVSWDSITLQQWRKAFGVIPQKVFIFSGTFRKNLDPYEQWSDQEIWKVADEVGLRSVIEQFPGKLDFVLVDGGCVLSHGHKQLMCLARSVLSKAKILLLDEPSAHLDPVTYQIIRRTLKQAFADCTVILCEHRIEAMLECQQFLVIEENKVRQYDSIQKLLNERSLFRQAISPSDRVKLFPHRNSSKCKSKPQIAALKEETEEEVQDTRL

ΔF508-CFTR [4] = target: T1, ΔF508-CFTR; conditions: IB3-1 cells; 2.5 mM; cited from earlier work
ΔF508-CFTR [5] = conditions: cited from earlier work
ΔF508-CFTR [6] = conditions: CF epithelial cells; cited from earlier work
CFTR gene = conditions: cited from earlier work
[7] = in vivo; cited from earlier work
fetal hemoglobin = fetal hemoglobin levels in thalassemic patients; format: in vivo
Source text: Compositions administered in pulses have the surprising benefit of reducing the overall load of drug on the patient as the total amount of drug administered can be substantially less than that amount that has been therapeutically administered by conventional continuous therapy. Substantially means that there is more than an insignificant difference between the amount or concentration of a composition administered by pulsing according to the invention verses the amount or concentration administered using conventional therapy, without compromising the beneficial effect achieved to the patient. […] Typical pulsed amounts of arginine butyrate are from about 2 to about 20 g/kg/month, and preferably from about 3 to about 10 g/kg/month wherein the patient receives a total of less than about 20 kg per month, preferably less than about 15 kg per month and more preferably less than about 10 kg per month. […] Preferably, the therapeutically effective pulsed dose is less than the continuous dose, or less than one half, one third, one quarter, one fifth, one tenth or even one twentieth of the therapeutic continuous dose of the same composition or even less.

[8] = in vivo; cited from earlier work; remark: listed apart in the source
ΔF508-CFTR [9] = target: T1, ΔF508-CFTR; conditions: 1 M or 10%; cited from earlier work

Which results are given for `CCCC(=O)O` [butyrate, butyric acid]?
cAMP-responsive chloride secretion [1]: can induce cAMP-responsive chloride secretion; cAMP-stimulation indicative of chloride ion transport (ΔF508-CFTR [2]): no increases in cAMP-stimulation was observed; cell health, growth rate and morphology (IB3-1 cells): morphologic changes in IB3-1 cells, with rounding of cells and decreased growth rate

With `O=C(O)CCCc1ccccc1` [4PBA, 4-phenylbutyrate] as the compound, how does the forskolin-activated chloride secretion (ΔF508-CFTR [3]) read?
The forskolin-activated chloride secretion was “restoration of forskolin-activated chloride secretion”.

And the “protein kinase A-activated, linear, 10 pS chloride channels at the plasma membrane” value (ΔF508-CFTR [4])?
The value was “appeared at the plasma membrane”.

And the “CFTR immunoreactivity in immunoblot experiments” value (ΔF508-CFTR [5]; 4PBA-treated samples)?
Its value is “increased CFTR immunoreactivity”.

And the “higher molecular mass forms of CFTR (immunoblot)” value (ΔF508-CFTR [5]; IB3-1 cells, 0.1-1 mM)?
The value was “appearance of higher molecular mass forms of CFTR”.

What about the “higher molecular mass forms of CFTR (immunoblot)” value (ΔF508-CFTR [5]; primary nasal epithelia, 5 mM) of the same compound?
Its value is “appearance of higher molecular mass forms of CFTR”.

What about the “amount of ΔF508-CFTR by immunocytochemistry” value (ΔF508-CFTR [6]) of the same compound?
The value was “consistent with increasing amounts of ΔF508-CFTR; also recorded: Increased CFTR immunoreactivity”.

And the “CFTR RNA levels” value (CFTR gene)?
Its value is “no changes in CFTF RNA levels; also recorded: no increases in CFTR mRNA”.

And the clinical tolerability [7]?
The clinical tolerability was “not well tolerated”.

With arginine butyrate as the compound, how does the “effectiveness at continuous administration” value (fetal hemoglobin; about 2000 mg/kg patient weight, continuous) read?
The value was “effective”.

And the “benefit measured by rise in fetal hemoglobin levels” value (fetal hemoglobin; about 400 to 1500 mg/kg in pulses, thalassemic patients)?
Its value is “surprisingly more beneficial”.

And the half-life [8]?
The half-life was 15 min.

With `OCC(O)CO` [glycerol] as the compound, how does the “movement of ΔF508-CFTR from the ER to the plasma membrane” value (ΔF508-CFTR [9]) read?
The value was “facilitate movement of ΔF508-CFTR from the ER to the plasma membrane”.
